Literature values, collected in patent publication US20070122442A1, “Triple-Action Pest Control Formulation and Method” (priority 2004, published 2007).

Tested on: insects
Details: variety of insects

OB(O)O [boric acid]
retention at which boric acid is known to be effective: below 0.5%
